Biological target: T1, YAP-TEAD interaction (Homo sapiens, UniProt P28347)
T1 construct: expressed in transfected cells; host or cells: HEK293 GripTite 293 MSR (Invitrogen R795-07)
Assay: Cell-based TEAD-GAL4 transactivation assay (luciferase reporter)
Conditions: HEK293 cells transfected with TEAD1-Gal4, YAP mutant (S127A, S397A) and luciferase reporter, compounds 0.1 μM to 30 μM; for Emax: HEK293, 24 h, read-out: TEAD-GAL4 Transactivation activity Max Act; for IC50: 24 h
Experimental: To identify inhibitors of YAP-TEAD interaction, a transient transactivation assay was carried out on HEK293 cell line (HEK293 GripTite™ 293 MSR (Invitrogen R795-07)) using plasmids containing the full length TEAD1 sequences, the full length YAP mutant (S127A, S397A) and a luciferase gene reporter. All expression constructs were performed into a pSG5 backbone plasmid in which the SV40 promoter was replaced by the CMV promoter. The TEAD1 construct was prepared by cloning the full-length human TEAD1 cDNA in fusion with the Gal4 DNA Binding Domain (AA 1-148) into pSG5_CMV to create the TEAD1 (FL)_hum_pSG5Gal4_CMV. The full-length YAP mutant (S127A, S397A) was also cloned into pSG5_CMV to create the YAP (FL)_hum_pSG5_mutS127A_S397A_CMV. The reporter plasmid GAL4(5×RE)_TK(−105/+56)_pGL3-Basic contains 5 copies of the GAL4 responsive element (5′-TCGGAGGACAGTACTCC-3′) upstream of the thymidine kinase (TK) promoter (−105/+56) inserted in a pGL3-Basic vector. To evaluate the selectivity of our compounds in blocking the YAP-TEAD interaction, a counter-screening protein-protein interaction transactivation assay was also established. Briefly, two other expression plasmids, the pBD-P53 which expresses the P53 (AA 72-390) in fusion with Gal4 and the pAD-SV40T which expresses the SV40 large T antigen (AA 84-708,AgT), were created. HEK293 cells were seeded at 5×10^4 cells/well in 96 well plates (assay plates) in DMEM medium containing 4.5 g/L D-glucose, 10% high inactivated (HI) fetal bovine serum 1% Glutamax, 1% non-essential amino acid and 1% sodium pyruvate and 0.5% penicillin/streptomycin at 37° C. in a humidified atmosphere of 8% CO2. After 24 h, transfections were performed using Jet-PEI as transfectant (101B-010 Polyplus Transfection), according to the instructions of the manufacturer (N/P=10) and a ratio YAP/TEAD=10 (per well: 50 ng of YAP(FL), 5 ng of TEAD(FL) and 50 ng of reporter plasmid). Six hours after cell transfection, the plates (‘assay plate’) were washed with 100 μl PBS per well and cells were treated with compounds in semi-log from 0.1 μM to 30 μM or DMSO 0.5% as control in DMEM, 4.5 g/L D-Glucose without phenol red, 0.3% BSA, 1% glutamax, 1% NEAA, 1% sodium pyruvate. 24 h later, the luciferase activity was determined after addition of 100 μl of Steady Glo™ luciferase assay system (Promega E2550) according to the manufacturer's directions. Luciferase activity in cell extracts was measured by reading luminescence using the Envision device.
The cellular response was determined by fitting the concentration response curves using a 3-parameter curve fit equation and determining the concentration that inhibited the luciferase activity by 50%.

T1 sequence (P28347 whole entry): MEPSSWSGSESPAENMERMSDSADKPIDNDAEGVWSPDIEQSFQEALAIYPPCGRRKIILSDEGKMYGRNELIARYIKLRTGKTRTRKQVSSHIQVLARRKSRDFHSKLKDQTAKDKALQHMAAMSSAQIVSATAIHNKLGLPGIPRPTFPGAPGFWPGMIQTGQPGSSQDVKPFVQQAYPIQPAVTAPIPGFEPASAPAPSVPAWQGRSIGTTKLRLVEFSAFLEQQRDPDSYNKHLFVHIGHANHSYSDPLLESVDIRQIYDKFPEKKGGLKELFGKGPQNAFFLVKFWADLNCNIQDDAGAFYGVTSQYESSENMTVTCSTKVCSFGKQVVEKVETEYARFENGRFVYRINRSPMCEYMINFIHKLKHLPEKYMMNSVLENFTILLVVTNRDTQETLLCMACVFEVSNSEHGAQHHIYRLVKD

Row | Compound | Emax | IC50
1 | CCN(/N=C/c1ccc(B(O)O)c(OC)c1)C1=NS(=O)(=O)c2ccccc21 [Ex 4, [4-[(E)-[(1,1-dioxo-1,2-benzothiazol-3-yl)-ethyl-hydrazono]methyl]-2-methoxy-phenyl] boronic acid] | 76% | 6.16 µM
2 | COCCN(/N=C/c1ccc(B(O)O)c(OC)c1)C1=NS(=O)(=O)c2ccccc21 [Ex 5, [4-[(E)-[(1,1-dioxo-1,2-benzothiazol-3-yl)-(2-methoxyethyl)-hydrazono]methyl]-2-methoxy-phenyl]boronic acid] | 67% | 7.1 µM
3 | CC(C)CN(/N=C/c1ccc(B(O)O)c(Cl)c1)C1=NS(=O)(=O)c2ccccc21 [Ex 6, [2-chloro-4-[(E)-[(1,1-dioxo-1,2-benzothiazol-3-yl)-isobutyl-hydrazono]methyl]phenyl] boronic acid] | 62% | –
4 | COc1cc(/C=N/N(CC(C)C)C2=NS(=O)(=O)c3ccc(C)cc32)ccc1B(O)O [Ex 7, [4-[(E)-[isobutyl-(5-methyl-1,1-dioxo-1,2-benzothiazol-3-yl)hydrazono]-methyl]-2-methoxy-phenyl]boronic acid] | 95% | 3.43 µM
5 | COCCOc1ccc2c(c1)C(N(CC(C)C)/N=C/c1ccc(B(O)O)c(OC)c1)=NS2(=O)=O [Ex 9, [4-[(E)-[isobutyl-[5-(2-methoxyethoxy)-1,1-dioxo-1,2-benzothiazol-3-yl]hydrazono]methyl]-2-methoxy-phenyl]boronic acid] | 98% | 2.33 µM
6 | CCOc1cc(/C=N/N(CC(C)C)C2=NS(=O)(=O)c3ccccc32)ccc1B(O)O [Ex 14, [4-[(E)-[(1,1-dioxo-1,2-benzothiazol-3-yl)-isobutyl-hydrazono]methyl]-2-ethoxyphenyl]boronic acid] | 90% | –
7 | COc1ccc2ncnc(N(CC(C)C)/N=C/c3ccc(B(O)O)c(OC)c3)c2c1 [Ex 19, [4-[(E)-[isobutyl-(6-methoxyquinazolin-4-yl)hydrazono]methyl]-2-methoxyphenyl] boronic acid] | 97% | 3.36 µM
8 | CCN(/N=C/c1ccc(B(O)O)c(OC)c1)c1ncnc2c(OC)cccc12 [Ex 21, [4-[(E)-[ethyl-(8-methoxyquinazolin-4-yl)hydrazono]methyl]-2-methoxy-phenyl]boronic acid] | 90% | 1.77 µM
9 | COc1cc(/C=N/N(C)c2ncnc3c(OC)cccc23)ccc1B(O)O [Ex 22, [2-methoxy-4-[(E)-[(8-methoxyquinazolin-4-yl)-methyl-hydrazono]-methyl]phenyl]boronic acid] | 97% | 2.57 µM
10 | COCCCN(/N=C/c1ccc2c(c1)COB2O)C1=NS(=O)(=O)c2ccccc21 [Ex 25, N-[(E)-(1-hydroxy-3H-2,1-benzoxaborol-5-yl)methyleneamino]-N-(3-methoxypropyl)-1,1-dioxo-1,2-benzothiazol-3-amine] | 78% | 2.78 µM
11 | Cc1ccc2c(c1)C(N(CC(C)C)/N=C/c1ccc3c(c1)COB3O)=NS2(=O)=O [Ex 29, N-[(E)-(1-hydroxy-3H-2,1-benzoxaborol-5-yl)methyleneamino]-N-isobutyl-5-methyl-1,1-dioxo-1,2-benzothiazol-3-amine] | 91% | –
12 | COc1ccc2c(c1)S(=O)(=O)N=C2N(CC(C)C)/N=C/c1ccc2c(c1)COB2O [Ex 30, N-[(E)-(1-hydroxy-3H-2,1-benzoxaborol-5-yl)methyleneamino]-N-isobutyl-6-methoxy-1,1-dioxo-1,2-benzothiazol-3-amine] | 86% | 3.84 µM
13 | COc1cccc2c(N(CC(C)C)/N=C/c3ccc4c(c3)COB4O)ncnc12 [Ex 32, N-[(E)-(1-hydroxy-3H-2,1-benzoxaborol-5-yl)methyleneamino]-N-isobutyl-8-methoxy-quinazolin-4-amine] | 86% | 1.59 µM

Second part, the molecule after the results:

Row | Emax | IC50 | Compound
14 | 74% | – | CC(C)CN(/N=C/c1ccc(B(O)O)cc1)C1=NS(=O)(=O)c2ccccc21 [Ex 8, [4-[(E)-[(1,1-dioxo-1,2-benzothiazol-3-yl)-isobutyl-hydrazono]methyl]-phenyl] boronic acid]
15 | 78% | 4.36 µM | COc1cc(/C=N/N(CC(C)C)C2=NS(=O)(=O)c3cc(C#N)ccc32)ccc1B(O)O [Ex 10, [4-[(E)-[(6-cyano-1,1-dioxo-1,2-benzothiazol-3-yl)-isobutyl-hydrazono]-methyl]-2-methoxy-phenyl]boronic acid]
16 | 85% | – | COCCOc1cc(/C=N/N(CC(C)C)C2=NS(=O)(=O)c3ccccc32)ccc1B(O)O [Ex 11, [4-[(E)-[(1,1-dioxo-1,2-benzothiazol-3-yl)-isobutyl-hydrazono]methyl]-2-(2-methoxyethoxy)phenyl]boronic acid]
17 | 98% | 2.97 µM | COc1cc(/C=N/N(CC(C)C)C2=NS(=O)(=O)c3ccc(OCCCO)cc32)ccc1B(O)O [Ex 12, [4-[(E)-[[5-(3-hydroxypropoxy)-1,1-dioxo-1,2-benzothiazol-3-yl]-isobutyl-hydrazono]methyl]-2-methoxy-phenyl]boronic acid]
18 | 95% | 5.78 µM | COc1cc(/C=N/N(CC(C)C)c2ncnc3c(OC)cccc23)ccc1B(O)O [Ex 13, [4-[(E)-[isobutyl-(8-methoxyquinazolin-4-yl)hydrazono]methyl]-2-methoxy-phenyl] boronic acid]
19 | 95% | – | COc1cc(OC)c2c(c1)C(N(CC(C)C)/N=C/c1ccc(B(O)O)c(Cl)c1)=NS2(=O)=O [Ex 15, [2-chloro-4-[(E)-[(5,7-dimethoxy-1,1-dioxo-1,2-benzothiazol-3-yl)-isobutyl-hydrazono]methyl]phenyl]boronic acid]
20 | 76% | 4.16 µM | CCC(C)N(/N=C/c1ccc(B(O)O)c(OC)c1)C1=NS(=O)(=O)c2ccccc21 (stereo not drawn) [Ex 16, [4-[(E)-[(1,1-dioxo-1,2-benzothiazol-3-yl)-sec-butyl-hydrazono]methyl]-2-methoxyphenyl]boronic acid]
21 | 98% | 7.74 µM | COc1cc(OC)c2ncnc(N(CC(C)C)/N=C/c3ccc(B(O)O)c(OC)c3)c2c1 [Ex 17, [4-[(E)-[(6,8-dimethoxyquinazolin-4-yl)-isobutyl-hydrazono]methyl]-2-methoxyphenyl]boronic acid]
22 | 80% | 2.18 µM | COc1cc(/C=N/N(CC(C)C)c2ncnc3cc(F)ccc23)ccc1B(O)O [Ex 18, [4-[(E)-[(7-fluoroquinazolin-4-yl)-isobutyl-hydrazono]methyl]-2-methoxyphenyl] boronic acid]
23 | 88% | 3.11 µM | CC(C)CN(/N=C/c1ccc2c(c1)COB2O)C1=NS(=O)(=O)c2ccccc21 [Ex 23, N-[(E)-(1-hydroxy-3H-2,1-benzoxaborol-5-yl)methyleneamino]-N-isobutyl-1,1-dioxo-1,2-benzothiazol-3-amine]
24 | 78% | 3.41 µM | CN(/N=C/c1ccc2c(c1)COB2O)C1=NS(=O)(=O)c2ccccc21 [Ex 26, N-[(E)-(1-hydroxy-3H-2,1-benzoxaborol-5-yl)methyleneamino]-N-methyl-1,1-dioxo-1,2-benzothiazol-3-amine]
25 | 90% | 2.75 µM | CC(C)CN(/N=C/c1ccc2c(c1)COB2O)C1=NS(=O)(=O)c2ccc(F)cc21 [Ex 28, 5-fluoro-N-[(E)-(1-hydroxy-3H-2,1-benzoxaborol-5-yl)methyleneamino]-N-isobutyl-1,1-dioxo-1,2-benzothiazol-3-amine]
26 | 86% | 4 µM | COc1cccc2c(N(C)/N=C/c3ccc4c(c3)COB4O)ncnc12 [Ex 33, N-[(E)-(1-hydroxy-3H-2,1-benzoxaborol-5-yl)methyleneamino]-8-methoxy-N-methyl-quinazolin-4-amine]
27 | 81% | 1.12 µM | CCN(/N=C/c1ccc2c(c1)COB2O)c1ncnc2c(OC)cccc12 [Ex 34, N-ethyl-N-[(E)-(1-hydroxy-3H-2,1-benzoxaborol-5-yl)methyleneamino]-8-methoxy-quinazolin-4-amine]

Reference: patent US11999758B2, “Inhibitors of the YAP/TAZ-TEAD interaction and their use in the treatment of cancer” (INVENTIVA, priority 2018, dated 2024)
